Test results published in patent US20240299328A1, “COMPOSITIONS COMPRISING 15-HEPE AND METHODS OF TREATING AND/OR PREVENTING HEMATOLOGIC DISORDERS AND RELATED DISEASES” (Afimmune Limited, priority 2023, published 2024).

Assays:
[1] = tested on: TGF-β signaling in HepG2 cells; test: TGF-β-induced EMT protein expression and type II TGF-β receptor in HepG2 cells; assay type: cell-based, human; conditions: liver cell lines (HepG2, LX2)
Experimental: The effects of 15-HEPE on TGF-β-induced signaling and cellular responses were determined. To test the effect of 15-HEPE on TGF-β-induced signaling, the activities of 15-HEPE to regulate TGF-β-stimulated Smad2 phosphorylation and nuclear translocation, both of which are key signaling events leading to TGF-β-induced cellular responses, were tested. One important biological activity of TGF-β is transcriptional activation of genes responsible for epithelial-mesenchymal transition (EMT), which is a crucial event in wound healing, tissue fibrosis, and cancer progression. The effect of 15-HEPE on TGFβ-induced epithelial mesenchymal transition related proteins (such as fibronectin, PAI-1, and N-cadherin etc.) expression in HepG2 and LXR cells were assessed. HepG2 cells (human hepatoma cell line) were treated in increasing doses of 15-HEPE stage II in DMEM containing 0.1% of FBS for 1 hour and continually stimulated with or without 200 picomolar (pM) of TGF-β for 48 hours. […] HepG2 cells (human hepatoma cell line) were treated in increasing doses of 15-HEPE stage II in DMEM containing 0.1% of FBS for 1 hour and continually stimulated with or without 200 picomolar (pM) of TGF-β for 48 hours. The two panels shown in FIG. 18A are two separate experiments run under the same experimental conditions.

[2] = tested on: humanized sickle cell (SS) mice exposed to H/R stress; test: SCD (SS) mice exposed to H/R stress: lung, kidney and liver histopathology; assay type: in vivo; set-up: key to Lung thrombi / Kidney thrombi / Liver thrombi: 0: no thrombi; +: presence of thrombi per field at the magnification ×250; conditions: 1000 mg/Kg/d for 6 weeks
Experimental: Lung, kidney and liver histological analysis: Paraffin-embedded tissue blocks were cut into 2-3 μm sections and mounted on adhesion microscope glass slides for Hematoxylin-Eosin (H&E), and Perls' staining for iron content. The analysis was performed on four different fields at a magnification 200×. Tissue pathological analysis, inflammatory cell infiltrate, the presence of thrombi and iron deposition were carried out by blinded pathologists as previously described.
(§1) Score for inflammatory cell infiltrate. Quantification of inflammatory cell infiltrates was expressed as the mean of cells per field at magnification of X250, as resulting by the analysis of at least 10 different fields on each hematoxylin-eosin-stained whole lung section. Data are expressed as means±SEM; * p<0.05 compared to normoxia.
Thrombi: 0: no thrombi; +: presence of thrombi per field at the magnification ×250.
Score for inflammatory cell infiltrate. Quantification of inflammatory cell infiltration in renal cortex of kidney was determined in hematoxylin-eosin-stained sections using a 0 to 4 scale based on the percentage of cell infiltrates occupied area in each filed. 0 (no sign of infiltration); 1 (1-10% of the area with cell infiltration); 2 (11-25%); 3 (26-50%); 4 […]. The mean of 15 randomly selected field were analyzed at magnification ×400. Data are expressed as means±SEM; * p<0.05 compared to normoxia; ºp<0.05 compared to vehicle. Thrombi: 0: no thrombi; +: presence of thrombi presence of thrombi per field at the magnification ×250.
as §1, with “×250,” for “X250,”, “liver” for “lung”
Thrombi: 0: no thrombi; +: presence of thrombi presence of thrombi per field at the magnification ×250.
Statistical analysis: Non-parametric Pairwise Wilcoxon Rank Sum Tests was used.

## CC/C=C\C[C@H](O)/C=C/C=C\C/C=C\C/C=C\CCCC(=O)OCC [DS102, 15(S)-hydroxy-(5Z,8Z,11Z,13E,17Z)-eicosapentaenoic acid ethyl ester]
[1]
  TGF-β signaling: directly inhibit
[2]; n = 4
  Kidney thrombi: 0
  Liver thrombi: 0
  Lung thrombi: 0
[2]; vs vehicle
  liver iron accumulation (Perls' staining): significant reduction
  thrombi formation in liver: significant reduction
